{"source": "paper PMC7044277", "about": "(Nature Communications, 2020)", "assay_type_in_all_cases": "cell-based", "key": {"DRD3 F1063.28A": {"molecular_target": "DRD3 F1063.28A (Homo sapiens, UniProt P35462, F106A)", "sequence (P35462 whole entry F106A)": "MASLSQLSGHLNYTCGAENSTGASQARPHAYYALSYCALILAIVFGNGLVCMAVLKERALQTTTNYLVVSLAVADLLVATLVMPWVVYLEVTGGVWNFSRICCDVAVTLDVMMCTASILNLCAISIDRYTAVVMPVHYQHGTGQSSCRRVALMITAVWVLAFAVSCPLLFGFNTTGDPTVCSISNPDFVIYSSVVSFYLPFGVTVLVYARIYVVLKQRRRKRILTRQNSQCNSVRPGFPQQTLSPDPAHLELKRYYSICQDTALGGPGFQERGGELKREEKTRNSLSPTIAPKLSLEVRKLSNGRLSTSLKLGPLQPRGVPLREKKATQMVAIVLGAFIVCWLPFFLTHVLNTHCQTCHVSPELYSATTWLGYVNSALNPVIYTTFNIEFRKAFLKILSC", "test": "cell-based"}, "320 non-olfactory GPCRs [1]": {"molecular_target": "T1, 320 non-olfactory GPCRs (Homo sapiens, UniProt P30556)", "T1 construct": "expressed in transfected cells; host or cells: HTLA cells", "T1 sequence (P30556 whole entry)": "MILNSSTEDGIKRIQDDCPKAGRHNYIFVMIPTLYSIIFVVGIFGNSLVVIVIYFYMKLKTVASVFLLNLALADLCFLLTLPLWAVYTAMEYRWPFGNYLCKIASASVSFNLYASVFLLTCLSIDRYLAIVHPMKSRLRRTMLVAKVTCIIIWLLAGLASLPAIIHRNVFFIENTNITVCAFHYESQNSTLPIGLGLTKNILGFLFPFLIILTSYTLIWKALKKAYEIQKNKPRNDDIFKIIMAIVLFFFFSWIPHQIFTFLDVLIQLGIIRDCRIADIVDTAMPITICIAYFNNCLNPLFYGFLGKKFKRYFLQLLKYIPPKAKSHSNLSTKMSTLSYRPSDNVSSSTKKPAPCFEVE"}, "320 non-olfactory GPCRs [2]": {"molecular_target": "T2, 320 non-olfactory GPCRs (Homo sapiens, UniProt P50052)", "T2 construct": "expressed in transfected cells; host or cells: HTLA cells", "T2 sequence (P50052 whole entry)": "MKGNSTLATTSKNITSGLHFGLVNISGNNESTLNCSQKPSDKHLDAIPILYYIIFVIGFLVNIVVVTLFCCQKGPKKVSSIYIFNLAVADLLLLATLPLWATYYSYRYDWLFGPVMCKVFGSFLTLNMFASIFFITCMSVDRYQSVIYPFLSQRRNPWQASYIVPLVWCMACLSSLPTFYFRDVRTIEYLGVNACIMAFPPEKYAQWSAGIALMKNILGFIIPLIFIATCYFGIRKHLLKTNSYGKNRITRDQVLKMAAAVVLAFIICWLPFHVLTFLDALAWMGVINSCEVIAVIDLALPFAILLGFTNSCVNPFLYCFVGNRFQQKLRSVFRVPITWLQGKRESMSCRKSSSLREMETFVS"}, "320 non-olfactory GPCRs [3]": {"molecular_target": "320 non-olfactory GPCRs (Homo sapiens, UniProt Q96PE1)", "sequence (Q96PE1 34-1338)": "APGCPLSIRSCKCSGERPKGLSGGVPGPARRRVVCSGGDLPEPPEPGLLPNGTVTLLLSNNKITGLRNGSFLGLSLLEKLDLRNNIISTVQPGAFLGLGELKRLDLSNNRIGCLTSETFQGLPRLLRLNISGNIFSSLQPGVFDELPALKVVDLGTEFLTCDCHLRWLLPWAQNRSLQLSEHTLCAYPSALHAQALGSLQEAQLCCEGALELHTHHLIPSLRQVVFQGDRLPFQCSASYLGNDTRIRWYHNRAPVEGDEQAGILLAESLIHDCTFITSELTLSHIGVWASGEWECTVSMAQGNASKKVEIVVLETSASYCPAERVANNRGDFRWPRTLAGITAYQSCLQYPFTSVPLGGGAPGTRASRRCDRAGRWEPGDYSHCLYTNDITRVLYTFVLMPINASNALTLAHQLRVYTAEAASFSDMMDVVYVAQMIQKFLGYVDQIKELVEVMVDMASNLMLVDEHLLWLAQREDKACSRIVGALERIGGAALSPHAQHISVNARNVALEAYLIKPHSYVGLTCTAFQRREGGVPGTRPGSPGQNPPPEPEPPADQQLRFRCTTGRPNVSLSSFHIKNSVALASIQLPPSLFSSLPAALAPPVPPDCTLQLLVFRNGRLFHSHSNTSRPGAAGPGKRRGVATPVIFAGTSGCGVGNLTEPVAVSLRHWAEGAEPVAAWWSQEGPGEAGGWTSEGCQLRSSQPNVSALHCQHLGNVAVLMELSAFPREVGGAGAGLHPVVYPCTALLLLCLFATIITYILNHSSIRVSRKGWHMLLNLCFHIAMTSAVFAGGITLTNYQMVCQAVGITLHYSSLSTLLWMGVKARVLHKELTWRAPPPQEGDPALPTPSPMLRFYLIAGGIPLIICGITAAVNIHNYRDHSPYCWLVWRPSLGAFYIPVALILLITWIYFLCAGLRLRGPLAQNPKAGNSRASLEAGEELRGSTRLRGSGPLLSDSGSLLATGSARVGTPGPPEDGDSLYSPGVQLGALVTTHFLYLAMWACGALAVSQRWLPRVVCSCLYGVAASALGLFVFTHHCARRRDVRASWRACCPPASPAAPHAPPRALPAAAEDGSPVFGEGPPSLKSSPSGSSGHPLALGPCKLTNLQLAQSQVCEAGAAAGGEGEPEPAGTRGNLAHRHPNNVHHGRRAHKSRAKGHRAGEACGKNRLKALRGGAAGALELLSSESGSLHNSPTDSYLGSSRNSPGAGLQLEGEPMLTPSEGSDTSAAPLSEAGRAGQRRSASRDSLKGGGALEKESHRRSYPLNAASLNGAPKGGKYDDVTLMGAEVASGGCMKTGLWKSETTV"}, "DRD2 (D2 long receptor)": {"molecular_target": "DRD2 (D2 long receptor) (Homo sapiens, UniProt P14416)", "sequence (P14416 whole entry)": "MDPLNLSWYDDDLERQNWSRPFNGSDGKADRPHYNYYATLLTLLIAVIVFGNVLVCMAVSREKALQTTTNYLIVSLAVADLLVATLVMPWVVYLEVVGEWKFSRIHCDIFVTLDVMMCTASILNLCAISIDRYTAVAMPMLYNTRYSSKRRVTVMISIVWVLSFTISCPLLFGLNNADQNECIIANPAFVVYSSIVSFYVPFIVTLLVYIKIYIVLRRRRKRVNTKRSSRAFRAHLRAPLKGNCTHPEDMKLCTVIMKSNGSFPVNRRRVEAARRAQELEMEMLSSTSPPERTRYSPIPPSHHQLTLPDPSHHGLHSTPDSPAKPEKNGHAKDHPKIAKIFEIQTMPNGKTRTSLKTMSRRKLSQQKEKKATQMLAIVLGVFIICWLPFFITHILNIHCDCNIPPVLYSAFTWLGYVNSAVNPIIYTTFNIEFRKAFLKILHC", "test": "Gαi1-γ2 dissociation BRET assay, HEK293T", "conditions": "agonist"}}, "note": "Values joined by “and” are separate entries in the source; they are usually repeats but may differ in a detail not shown here. Identical values can stand only once.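 Throughout, for Fold of Basal: compound tested at 1 µM final concentration.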"}
{"smiles": "CCOc1cccc2cc(C(C)NCC3(O)CCCCC3)oc12", "note": "(centres unmarked) [O4LE6]", "values": [{"measurement": "EC50", "setting": "DRD3 F1063.28A", "value": "> 10000", "unit": "nM"}, {"measurement": "Fold of Basal", "setting": "320 non-olfactory GPCRs [1]", "value": "1.668 and 2.301 and 2.105 and 2.204"}, {"measurement": "Fold of Basal", "setting": "320 non-olfactory GPCRs [2]", "value": "1.003 and 1.182 and 1.322 and 1.107"}, {"measurement": "Fold of Basal", "setting": "320 non-olfactory GPCRs [3]", "value": "1.7314 and 1.927 and 1.697 and 1.27"}, {"measurement": "EC50", "setting": "DRD2 (D2 long receptor)", "value": 24.1, "unit": "nM"}]}
